Measured values as given in patent US20140112882A1, “Methods to treat pancreatic inflammation and associated lung injury through regulation of pancreatic interleukin-22 expression” (The Board of Trustees of the Leland Stanford Junior …, priority 2012, published 2014).

How the values were obtained:
[1] = test system: RegIII genes, SAA3, β-defensin2, IL-22RA1 in pancreas; assay: Quantitative PCR of pancreas mRNA 24 h after rIL-22; type: in vivo, Balb/c mice; conditions: 200 ng/mouse i.p., vs PBS
Protocol: Pancreatic tissue was lysed with Trizol reagent (Invitrogen) for total RNA preparation according to manufacturer's instructions. Briefly, cDNA was generated using GoScript reverse transcription system (Promega). Quantitative PCR was performed with an ABI-7900 Sequence Detection System (Applied Biosystems) using designed specific TaqMan probes and primers as follows: RegIIIβ (Forward, 5′-[…]-3′; Reverse, 5′-[…]-3′; Probe, 5′-[…]-3′); RegIIIγ (Forward, 5′-[…]-3′; Reverse, 5′-TGGGTTCATAGCCCAGTGT-3′; Probe, 5′-[…]-3′); β-defensin2 (Forward, 5′-[…]-3′; Reverse, 5′-[…]-3′; Probe, 5′-[…]-3′); SAA3 (Forward, 5′-[…]-3′; Reverse, 5′-[…]-3′; Probe, 5′-[…]-3′); IL-22RA1 (Forward, 5′-[…]-3′; Reverse, 5′-[…]-3′; Probe, 5′-[…]-3′).

[2] = test system: caerulein-induced acute pancreatitis; assay: Caerulein-induced acute pancreatitis in AhR non-responsive (AhR^d) mice; type: in vivo, AhR^d mice (C57BL/6 background); conditions: rIL-22 single dose 200 ng/mouse, vs vehicle control
Protocol: (§1) Mice including Balb/c, C57B6/J and AhR^d were purchased from Jackson laboratory and housed under pathogen-free conditions. All animal experiments were approved by Stanford University institutional animal care and use committees. Acute pancreatitis models. For caerulein-induced pancreatitis, age and sex matched mice were fasted for 12-16 hours. Mice then received 7 hourly intra-peritoneal injections of saline (control) or 50 μg/kg caerulein in saline and followed up to 12 h or indicated times. For the choline-deficient diet supplemented with DL-ethionine (CDE-diet) model of pancreatitis, young female mice (16-20 g) were fasted then fed a choline-deficient diet (Harlan Teklad) supplemented with 0.5% DL-ethionine (Sigma-Aldrich) or normal chow (control group) (Habtezion et al. (2011), Nakamichi et al., 2005).
(§2) Mice were euthanized by CO2 inhalation. Pancreata and other tissues were rapidly removed. Pancreas and lung pieces were immediately fixed in 10% formalin and embedded in paraffin. […] The severity of pancreatitis and lung injury were scored blindly as described previously (Habtezion et al. (2011), Nakamichi et al., 2005). Other pancreas pieces were frozen in Tissue-Tek OCT compound and sectioned for fluorescence staining Immunofluorescence staining for p-STAT3 (Cell Signaling) and DAPI (nuclei) was performed according to manufacturer's guidelines. […]

[3] = test system: primary pancreatic acinar cells; assay: Spontaneous apoptosis of primary pancreatic acinar cells in vitro (cleaved caspase-3 western blot); type: cell-based, mice; conditions: rIL-22 for 2 h or 4 h in vitro; vs PBS
Protocol: (§3) Mouse pancreata were isolated and frozen immediately in liquid nitrogen. Total tissue and primary pancreatic acinar cells, isolated as described below, were homogenized in RIPA buffer containing protein inhibitors and analyzed by western blot as described previously (Nakamichi et al., 2005; Xue et al., 2010). IL-22RA1 and cleaved caspase-3 antibodies were purchased from Abcam and Cell Signaling, respectively. Supernatant from pancreas homogenate was analyzed using ELISA kit for mouse IL-22 (Biolegend).
(§4) Mice were sacrificed and pancreata removed carefully by trimming fat and mesentery. Dispersed pancreatic acinar cells were isolated using a collagenase digestion method described previously (Menozzi et al. 1990). Isolated primary pancreatic acinar cells were treated in vitro with either rIL-22 or vehicle control (PBS) for up to 4 hours following isolation. Pancreatic leukocytes were prepared with minor modifications of the method developed by Hawkins (Hawkins et al., 1996). Briefly, 3-4 pancreata were pooled together and minced with scissors, then washed twice with buffer A (HBSS+10% FCS). The tissue was resuspended in buffer A containing 2 mg/ml collagenase type IV (Sigma-Aldrich) and incubated in a shaker at 37° C. for 15 min. […]

[4] = test system: CDE-induced acute pancreatitis; assay: CDE-diet-induced acute pancreatitis model; type: in vivo, Balb/c mice
Protocol: as §1
(§5) Mice were given PBS or recombinant IL-22 (200 ng/mouse, 1 ng/μl, Miltenyi Biotech) intra-peritoneally at 24 h after onset of CDE-diet-induced acute pancreatitis. For experiments involving anti-IL-22 mAb, mice were treated with 1 μg of either anti-IL-22 or isotype control mAb (R&D Systems) at indicated times. CH-223191 (100 μg/mouse, 0.5 μg/μl, Sigma-Aldrich) was dissolved in DMSO and Biliverdin hydrochloride (35 mg/kg, Frontier Scientific) in 20 mM NaOH adjusted to pH of 7.0. CH-223191, Biliverdin hydrochloride, or vehicle control were used to treat normal mice or mice undergoing AP at indicated times.
Mice were euthanized by CO2 inhalation. Pancreata and other tissues were rapidly removed. Pancreas and lung pieces were immediately fixed in 10% formalin and embedded in paraffin. Fixed tissues were sectioned and stained with hematoxylin and eosin (H&E; performed by Histo-Tec Laboratory). The severity of pancreatitis and lung injury were scored blindly as described previously (Habtezion et al. (2011), Nakamichi et al., 2005). Other pancreas pieces were frozen in Tissue-Tek OCT compound and sectioned for fluorescence staining Immunofluorescence staining for p-STAT3 (Cell Signaling) and DAPI (nuclei) was performed according to manufacturer's guidelines. TUNEL assay was performed according to the manufacturer's instructions (ApopTag® Red In Situ Apoptosis Detection Kit, Millipore).
Blood was collected by intracardiac puncture, and serum was isolated for subsequent lipase level determination by diagnostic laboratory at Stanford University. Lung tissues were collected and MPO assay performed according to manufacture's guidelines (Biovision).
as §3

[5] = test system: STAT3; assay: STAT3 phosphorylation in tissues after systemic rIL-22 (western blot, immunofluorescence); type: in vivo, Balb/c mice; conditions: rIL-22 200 ng/mouse systemically; 1 h; compared to other tissues
Protocol: as §5
as §2, with “removed.” for “removed. Pancreas and lung pieces were immediately fixed in 10% formalin and embedded in paraffin.”
Mouse pancreata were isolated and frozen immediately in liquid nitrogen. Total tissue and primary pancreatic acinar cells, isolated as described below, were homogenized in RIPA buffer containing protein inhibitors and analyzed by western blot as described previously (Nakamichi et al., 2005; Xue et al., 2010). […]

[6] = test system: pancreatic acinar cells; assay: pSTAT3 induction in isolated primary pancreatic acinar cells (western blot); type: cell-based, Balb/c mice; conditions: 10 ng/ml for 0-30 min; 0-100 ng/ml for 15 min
Protocol: as §3, §4

[7] = test system: pancreatic IL-22; assay: Pancreatic IL-22 production in mice (flow cytometry of pancreatic leukocytes, ELISA); type: in vivo, Balb/c mice; conditions: day 3, vs vehicle
Protocol: as §5
as §3, with “IL-22RA1 and cleaved caspase-3 antibodies were purchased from Abcam and Cell Signaling, respectively.” left out, “(Biolegend). […]” for “(Biolegend).”
For surface staining, cells were stained with the following antibodies (Biolegend): AF700 or FITC CD45.2, PE/Cy7-CD3, PE/Cy7-CD19, APC/Cy7-CD4, FITC-CD90, Percp/Cy5.5-CD11b, APC-Sca-1, PB-CD11c, APC/Cy7-NK1.1 and APC-NKp46. […] Flow cytometry data collection was performed on Fortessa LSRII (BD Biosciences) and analyzed using FlowJo software (Tree Star, Inc.).

[8] = 200 ng/mouse 24 h after CDE feeding, 60 h, vs PBS

rIL-22: recombinant IL-22 (Miltenyi Biotech), cytokine of the IL-10 family
IL-22RA1 mRNA expression in pancreas [1]: no significant induction | RegIIIβ (PAP1) mRNA expression in pancreas [1]: stimulated the expression | RegIIIγ (PAP3) mRNA expression in pancreas [1]: stimulated the expression | SAA3 mRNA expression in pancreas [1]: no significant induction | β-defensin2 mRNA expression in pancreas [1]: no significant induction | Pancreatic injury (H&E) [2]: decrease | Serum lipase levels [2]: decrease | Spontaneous apoptosis of acinar cells (cleaved caspase-3) [3]: delayed spontaneous apoptosis | Blinded lung histology score ([4]; 200 ng/mouse 24 h after CDE feeding, 60 h, mean±SEM, P=0.028 vs control): 1.6±0.24 | Lung myeloperoxidase (MPO) levels [4, 8]: significantly reduced | Morphologic evidence of lung injury [4, 8]: significantly reduced | Pancreatitis severity, histologic examination and blinded scoring of pancreata ([4]; 200 ng/mouse 24 h after CDE feeding, 60 h, vs vehicle): less severe pancreatitis | Serum lipase levels ([4]; 200 ng/mouse i.p. 24 h after CDE feeding, harvest at 60 h, vs PBS): significantly lower | Pancreatic IL-22 level by ELISA after systemic administration ([4]; 60 h following CDE feeding): Effective reconstitution | Mortality ([4]; rIL-22 24 h after CDE feeding, followed to 72 h, vs PBS): lower mortality | Apoptosis in pancreas (TUNEL assay) ([4]; rIL-22 24 h after CDE feeding, pancreas at 60 h): significantly reduced apoptosis | STAT3 activation (p-STAT3) in the pancreas [5]: Significant STAT3 activation | pSTAT3 induction in pancreatic acinar cells [6]: induced by rIL-22 in pancreatic acinar cells in a time and dose dependent manner

C=CC1=C(C)/C(=C/C2=NC(=C\c3[nH]c(/C=C4\NC(=O)C(C)=C4C=C)c(C)c3CCC(=O)O)/C(CCC(=O)O)=C2C)NC1=O [biliverdin, reference compound]
Pancreatic IL-22 ([7]; biliverdin 35 mg/kg on day 1 and 2, ELISA and flow cytometry): significant increase | Protection against acute pancreatitis (serum lipase, histologic assessment) ([4]; single dose 24 h after CDE-diet feeding, sacrificed at 60 h, vs vehicle): protected against acute pancreatitis

Cc1ccccc1N=Nc1ccc(NC(=O)c2ccnn2C)c(C)c1 [CH-223191, 2-methyl-2H-pyrazole-3-carboxylic acid (2-methyl-4-o tolylazo-phenyl)-amide, reference compound]
Frequency of IL-22-expressing leukocytes in the pancreas ([7]; 100 μg/mouse on two consecutive days, flow cytometry and ELISA): markedly decreased | Mortality ([4]; pretreated before CDE feeding, by day 3, relative to control treated mice): increased mortality | Severity of acute pancreatitis (serum lipase, H&E, histologic score) ([4]; pretreated daily for two days before CDE feeding, analyzed at day 2, vs vehicle): considerably more severe acute pancreatitis
